Assay results as given in PMC7591920, “A protein tertiary structure mimetic modulator of the Hippo signalling pathway” (Nature Communications, 2020).
Bridge positions count the residues as written; N and C are the ends. Square brackets hold non-standard residues; d marks the D form. Peptide text beside a SMILES is read from it. AEEA = NCCOCCOCC(=O)O

Experiments:
RKO cells = experiment: Total drug content in RKO cells by UPLC-MS; settings: for Total drug content, Measured Concentration: RIPA total lysis, diluted lysate
Procedure: Peptides were incubated in RKO cells (ATCC, #CRL-2577) as follows: Experiment 1: RKO cells were incubated in 25 µM compound for 90 min and 24 h. Experiment 2: RKO cells were incubated in 25 µM for 30 min or 72 h. Following peptide incubation, the cells were washed twice with PBS, trypsinized and pelleted. The pellets were lysed in RIPA buffer (Perkin Elmer) for total lysis, or CelLytic NuCLEAR Extraction Kit (SIGMA) for subcellular fractionation. Total protein quantification BCA (Pierce) was performed prior to MS analysis to normalize sample data. Total and fractionated cell lysates were analysed by quantitative UPLC-MS utilizing a Waters Xevo TQ-XS (WBA0259) and an Acquity UPLC system from Waters consisting of Sample Manager (M16UFL953M), Acquity PDA (F17UPD457A), Column Oven (E17CMP703G) and Binary Solvent Manager (E17BUR621G). […] Chromatograms of the samples were treated similarly, and by linear regression (1/x) an in-cell concentration was established in the re-suspended cell lysate using the Waters MassLynx TargetLynx^TM product.

[1] = system: primary juvenile (P5–P6) rat cardiomyocytes; experiment: Cell cycle activity assay (Ki67/αActinin) in juvenile rat cardiomyocytes; format: cell-based; settings: for Effect on cardiomyocyte cell cycle activity: P5–P6 rat heart cells, 4-days incubation, Ki67/αActinin double-positive cells; for Cell cycle activity, MEAN: c = 10 µM, 4 days, relative to DMSO-treated cells (100), mean of N = 6; for Dose-dependent cell cycle stimulation, MEAN: 4-day treatment, relative to DMSO (100), mean of n = 3
Procedure: One day after seeding, the cells were treated with test compounds of interest. Treatments were applied with an ECHO 520 acoustic dispenser (Labcyte) and medium was added to the wells. Four days after treatment, the cells were fixed with 4% formaldehyde (Roth) and immunostained in 0.2% Triton-X100 (Roth) in PBS (Gibco) supplemented with 5% FBS. […] Samples were then imaged and analysed on an ImageXpress XL automated microscope (Molecular Devices). Data are depicted as means ± SEM.

[2] = Circular dichroism, calculated helicity; format: physicochemical; settings: 10 mM sodium phosphate pH 7.4, 75 to 10 µM peptide, CDNN software PEPFIT mode, unbound peptide
Procedure: The spectra were obtained using a Jasco J-715 and a cuvette 0.1 mm. Represented CD spectra are an average of five measurements done between λ = 190 and 300 nm with a continuous scan mode, 50 nm min^−1 scan speed and data point every 1 nm. The α-helicity was calculated using CDNN software using the PEPFIT mode[42].

YAP = YAP localization assay in juvenile rat cardiomyocytes; format: cell-based; settings: for YAP ratio (nucleus/cytoplasm), Mean: 4 h, primary juvenile rat cardiomyocytes, DMSO mean 2.99; for YAP ratio in cardiomyocytes (nucleus/cytoplasm): fluorescence immunocytochemistry, 8 Hours, mean of n = 3
Procedure: We analysed the YAP sub-cellular distribution in cardiomyocytes by means of fluorescence intensity after immunocytochemistry. After 3 days in culture, the cardiac cells were treated and fixed 4, 8, and 24 h after treatment. […] Secondary antibodies were used to detect the primary antibodies (goat anti-mouse Alexa Fluor 568, A-11004, dilution 1:1000 and goat anti-rabbit AlexaFluor 488, A-11008, dilution 1:1000, both from Thermo Fisher Scientific) and nuclei were counterstained with DAPI (2-(4-amidinophenyl)-1H-indole-6-carboxamidine, dilution 1:1000, Roth). The samples were then imaged and analysed on an ImageXpress XL automated microscope (Molecular Devices). […] Data are depicted as means ± SEM.

TEAD target genes = experiment: qPCR analysis of TEAD target genes in cardiomyocytes from human ES cell line (H7); format: cell-based; settings: c = 30 µM, t = 18 h
[3] = Peptide stability in cell culture media with 10% FBS; settings: 30 µM peptide, MEM + 10% FBS, 37 °C, HPLC/MS, duplicates
Procedure: A total of 30 µM of the peptide was incubated in MEM media supplemented with 10% FBS at 37 °C. At the indicated time point, 25 µL of the sample was withdrawn, mixed with an equal volume of the internal standard solution (6 µM Fmoc-Arg(Pbf)-OH), kept on ice for 15 min followed by centrifugation (16×g) at 4 °C for 5 min. The supernatant was analysed with LC-MS (UltiMate 3000 UHPLC Systems) using C18 reverse phase column (Nucleodur, 1.8 µm C18 gravity, 2 mm) and Thermo Orbitrap Velos Pro ETD. The peptide absorbance (λ = 280 nm) or the mass spectrometry peak intensity relative to that of the internal standard peak intensity was graphed. The stability experiments were performed in duplicates.

hTEAD1–VGL4 complex = target: T1, hTEAD1–VGL4 complex (Homo sapiens, UniProt P28347); experiment: Competitive FP, displacement of labelled VGL4(203–256) from hTEAD1; format: binding
T1 construct: CDNA of hTEAD1(209–426) fused with an N-terminal GST tag; GST (N); 6x His-tag (N); 3C protease cleavage site (N); made in house; host or cells: Escherichia coli BL21 DE3 RIL(K+); tracer peptide synthetic
T1 sequence (P28347 209-426, one chain of several): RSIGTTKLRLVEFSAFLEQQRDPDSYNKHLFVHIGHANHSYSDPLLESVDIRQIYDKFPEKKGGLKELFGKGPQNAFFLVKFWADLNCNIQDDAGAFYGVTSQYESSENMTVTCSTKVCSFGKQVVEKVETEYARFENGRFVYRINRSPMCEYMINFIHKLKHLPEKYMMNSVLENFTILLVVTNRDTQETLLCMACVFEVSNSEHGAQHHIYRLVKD
Procedure: Next, the ability of the peptides in our panel to inhibit the TEAD–VGL4 interaction was investigated. For this purpose, a competition pull-down experiment was performed using biotinylated VGL4(203–256) (b-1) as the bait for GST-tagged hTEAD1. b-1 was immobilized on streptavidin magnetic beads and hTEAD1 pull-down was detected using gel electrophoresis (Fig. 3d). […] To evaluate how inhibitor binding discriminates between these two binding partners, we performed a competitive binding assay based on FP.
Supplementary Figure 15│ Binding studies of hTEAD1 by fluorescence polarization. Dissociation constants were measured […]
The fluorescent cofactor (10 nM) are directly titrated with hTEAD1. After 1 hour of incubation, fluorescence polarization was measured, and a non-linear fitting was applied to the curves to determine the […]
In the competitive binding assay, first a complex with the fluorescent cofactor (10 nM) and hTEAD1 (100 nM) was formed and after 1 hour of incubation, the unlabelled peptide was titrated. After 1 hour of incubation, fluorescence polarization was measured, and a non-linear fitting was applied to the curves to determine the half maximal inhibitory concentration. (c) Competition assay […]
Mean ± SEM of triplicates were plotted for all data. Source data are provided as a Source Data file.
(1 picture or pasted object on this page, not shown here)

[4] = 25 µM compound, 24 hours, UPLC-MS, n = 2
[5] = 25 µM compound, 24 hours, total lysis, UPLC-MS, n = 2
[6] = total drug content, 25 µM compound, 90 minutes, mean of 2 replicates

Compound: CC[C@H](C)[C@@H]1NC(=O)[C@H](CCC(N)=O)NC(=O)[C@H](CC(C)C)NC(=O)[C@H](Cc2c[nH]c3ccccc23)NC(=O)[C@H]([C@@H](C)O)NC(=O)[C@H](CC(=O)O)NC(=O)CNC(=O)[C@H](CC(C)C)NC(=O)[C@H](C)NC(=O)[C@H](CCCCN)NC(=O)[C@H](C)NC(=O)[C@H](Cc2ccccc2)NC(=O)[C@H](Cc2c[nH]cn2)NC(=O)[C@H](CC(=O)O)NC(=O)[C@@H](NC(=O)[C@@H](NC(=O)[C@H](CO)NC(C)=O)C(C)C)CCC(=O)NCCCC[C@@H](C(=O)N[C@@H](C)C(=O)N[C@@H](C)C(N)=O)NC1=O [4E] (Ac-SVEDHFAKALGDTWLQIKAA-NH2; lactam 3-18)
- Total drug content, Measured Concentration (RKO cells; [4]): < LLOQ
- Total drug content, nMol (RKO cells; [5]): < LLOQ
- Total drug content, pMol.mg-1 (RKO cells; 25 µM compound, 24 hours, total lysis, UPLC-MS, normalised to BCA protein, n = 2): < LLOQ
- pMol/mg of protein, Mean (RKO cells; [6]): 424.4 pMol/mg of protein
- Effect on cardiomyocyte cell cycle activity [1]: has no effect
- Cell cycle activity, MEAN [1]: 92.7542
- Helicity (CD) [2]: 23%

Compound: CC[C@H](C)[C@@H]1NC(=O)[C@H](CCC(N)=O)NC(=O)[C@H](CC(C)C)NC(=O)[C@H](Cc2c[nH]c3ccccc23)NC(=O)[C@H]([C@@H](C)O)NC(=O)[C@H](CC(=O)O)NC(=O)CNC(=O)[C@H](CC(C)C)NC(=O)[C@H](C)NC(=O)[C@H](CCCCN)NC(=O)[C@H](C)NC(=O)[C@H](Cc2ccccc2)NC(=O)[C@H](Cc2c[nH]cn2)NC(=O)[C@H](CC(=O)O)NC(=O)[C@@H](NC(=O)[C@@H](NC(=O)[C@H](CO)NC(=O)COCCOCCNC(=O)[C@H](CCC(N)=O)NC(=O)[C@@H]2CCCN2C(=O)[C@H](CCCNC(=N)N)NC(=O)[C@H](CCCNC(=N)N)NC(=O)[C@H](CCCNC(=N)N)NC(=O)[C@H](CCC(N)=O)NC(=O)[C@H](CCCNC(=N)N)NC(=O)[C@H](CCCNC(=N)N)NC(=O)[C@H](CCCCN)NC(=O)[C@H](CCCCN)NC(=O)[C@H](CCCNC(=N)N)NC(=O)CNC(C)=O)C(C)C)CCC(=O)NCCCC[C@@H](C(=O)N[C@@H](C)C(=O)N[C@@H](C)C(N)=O)NC1=O [compound 7] (Ac-GRKKRRQRRRPQ[AEEA]SVEDHFAKALGDTWLQIKAA-NH2; lactam 16-31)
- YAP ratio (nucleus/cytoplasm), Mean (YAP; 5 µM): 3.475
- YAP ratio (nucleus/cytoplasm), Mean (YAP; 5 µM, listed as peptide 7): 3.48
- YAP ratio (nucleus/cytoplasm), Mean (YAP; 10 µM): 5.895
- YAP ratio (nucleus/cytoplasm), Mean (YAP; 10 µM, listed as peptide 7): 5.89
- YAP ratio in cardiomyocytes (nucleus/cytoplasm) (YAP; 5 µM of 7): 2.607
- YAP ratio in cardiomyocytes (nucleus/cytoplasm) (YAP; 10 µM of 7): 3.272
- Effect on sub-cellular distribution of YAP (YAP; juvenile rat cardiomyocytes, 4 h treatment, vs vehicle control): increased nuclear accumulation of YAP
- Total drug content, Measured Concentration (RKO cells; 25 µM compound, 90 minutes, UPLC-MS, n = 2): 122.09 ± 7.277 nM
- Total drug content (RKO cells; 25 µM compound, 90 minutes, total lysis, UPLC-MS, n = 2): 0.1831 ± 0.01091 nmol
- Total drug content, Measured Concentration (RKO cells; [4]): 91.646 ± 61.816 nM
- Total drug content (RKO cells; [5]): 0.1375 ± 0.09272 nmol
- loss of total concentration between 90 min and 24 h incubation (RKO cells; 25 µM, authors' response in peer review file): 30%
- Measured Conc (RKO cells; total drug content, 25 µM compound, 90 minutes, UPLC-MS, dilution factor 10, replicate 1): 114.813 nM
- Measured Conc (RKO cells; total drug content, 25 µM compound, 90 minutes, UPLC-MS, dilution factor 10, replicate 2): 129.367 nM
- pMol/mg of protein, Mean (RKO cells; [6]): 183.0 pMol/mg of protein
- Measured Conc (RKO cells; total drug content, 25 µM compound, 24 hours, UPLC-MS, dilution factor 10, replicate 1): 153.462 nM
- Measured Conc (RKO cells; total drug content, 25 µM compound, 24 hours, UPLC-MS, dilution factor 10, replicate 2): 29.83 nM
- pMol/mg, Mean (RKO cells; total drug content, 25 µM compound, 24 hours, mean of 2 replicates): 127.1 pMol/mg
- Effect on expression of TEAD target genes (TEAD target genes; qPCR): increased levels of the cell cycle genes CYR61, CTGF, ANKRD1, and SEPINE1
- RQ (relative target quantity) (TEAD target genes; target gene ANKRD1, RT-qPCR): 4.731
- RQ (relative target quantity) (TEAD target genes; target gene CTGF, RT-qPCR): 1.987
- RQ (relative target quantity) (TEAD target genes; target gene CYR61, RT-qPCR): 3.964
- RQ (relative target quantity) (TEAD target genes; target gene SERPINE1, RT-qPCR): 3.52
- peptide intact after 24 h [3]: about 80%
- Dose-dependent cell cycle stimulation, MEAN ([1]; 1 mM (so in the source)): 106.813
- Dose-dependent cell cycle stimulation, MEAN ([1]; 5 mM (so in the source)): 131.729
- Dose-dependent cell cycle stimulation, MEAN ([1]; 10 mM (so in the source)): 172.672
- Effect on cardiomyocyte cell cycle activity [1]: stimulates cell cycle activity to the same extent as positive controls
- Cell cycle activity, MEAN [1]: 148.037
- required concentration for VGL4 competition in the homogeneous FP-based competition assay (hTEAD1–VGL4 complex; hTEAD1): ca. 10 µM
- IC50 (hTEAD1–VGL4 complex; labelled VGL4(203–256) 10 nM + hTEAD1 100 nM pre-incubated 1 h, unlabelled peptide titrated, 1 h, triplicates, read-out: IC50, inhibition of hTEAD1–VGL4 complex): 5.46 ± 0.253 µM
